Data from paper PMC5834442, “Identifying inhibitors of the Leishmania inositol phosphorylceramide synthase with antiprotozoal activity using a yeast-based assay and ultra-high throughput screening platform” (Scientific Reports, 2018).
Read-outs that look alike come from different tables or passages of the source.

Experiments:
[1] = tested on: L. donovani (MHOM/SD/62/1S-CL2D, LdBOB) axenic amastigotes; assay: Leishmania donovani axenic amastigote dose response assay (resazurin); format: cell-based; conditions: -logIC50 mol against L. donovani (LdBOB) axenic amastigotes, read-out: pIC50 Axenic (converted)
HepG2 cells = assay: Mammalian cell cytotoxicity assay (CellTiter-Glo); format: cell-based, human; conditions: for IC50: Homo sapiens, -logIC50 mol against HepG2, read-out: PIC50 HepG2 (converted)
[2] = tested on: intra-macrophage Leishmania donovani amastigotes; assay: Intramacrophage Leishmania donovani assay (high content imaging); format: cell-based; conditions: Leishmania donovani
THP-1 macrophages = assay: Host cell toxicity in the intramacrophage assay; format: cell-based, human; conditions: for IC50: Homo sapiens, THP-1 host cells in intramacrophage assay, read-out: pIC50 THP-1 (converted); for pSI v THP-1: selectivity: pIC50 InMac minus pIC50 THP-1
[3] = selectivity: pIC50 axenic minus pIC50 HepG2
[4] = intramacrophage L. donovani, read-out: pIC50 InMac (converted)
[5] = selectivity, pIC50 axenic minus pIC50 HepG2

IC50 [1] | SMILES | IC50 (HepG2 cells) | pSI v HepG2 (HepG2 cells; [3]) | IC50 [2, 4] | IC50 (THP-1 macrophages) | pSI v THP-1 (THP-1 macrophages) | pSI v HepG2 (HepG2 cells; [5]) | IC50 ([2]; −logIC50 M, L. donovani infected THP-1 macrophages, 96 hours, read-out: pIC50 against intra-macrophage L. donovani amastigotes (converted))
0.661 µM | CNS(=O)(=O)c1ccc(C)c(Nc2nccc(-c3sc(C)nc3-c3ccccc3)n2)c1 [N6896-96-B1] | 38 µM | 1.76 | – | – | – | – | –
2.75 µM | Oc1ccc(-c2nccc(-c3ccc(Cl)cc3)n2)cc1 [SC/101464] | > 100 µM | 1.56 | – | – | – | – | –
2.95 µM | O=C(Nc1nnc(C(F)(F)F)s1)c1ccc([N+](=O)[O-])c(Cl)c1 [ST/640830] | 25.7 µM | 0.94 | – | – | – | – | –
1.29 µM | O=C(Nc1nc2ccc([N+](=O)[O-])cc2s1)c1cc(Cl)sc1Cl [ST/489542] | 10 µM | 0.89 | – | – | – | – | –
4.17 µM | O=[N+]([O-])c1cc(NS(=O)(=O)c2ccc(Cl)c(C(F)(F)F)c2)ccc1F [ST/654862] | 38.9 µM | 0.97 | – | – | – | – | –
4.27 µM | O=C(Nc1ccc(OC(F)(F)F)cc1)Nc1ccc([N+](=O)[O-])cc1 [ST/500242] | 14.1 µM | 0.52 | – | – | – | – | –
7.94 µM | COc1ccccc1-c1nn(-c2c(C)cccc2C)c2[nH]c(=O)cc(C(F)(F)F)c12 [ST/1471361] | > 100 µM | 1.10 | – | – | – | – | –
8.91 µM | CCCc1cc(=O)[nH]c(Nc2cc(Cl)cc(Cl)c2)n1 [ST/826453] | 14.1 µM | – | – | – | – | 0.20 | –
1.17 µM | Cc1[nH]c2ccccc2c(=O)c1Cc1ccc(C(F)(F)F)cc1 [4671W 92C*A] | > 100 µM | 1.93 | – | – | – | – | –
7.94 µM | C=CCOc1ccc(-c2nc(-c3ccc4c(c3)CCNCC4)no2)cc1Cl.Cl [N11110-83-1] | 4.37 µM | -0.26 | – | – | – | – | –
3.47 µM | O=C(Nc1nnc(C(F)(F)F)s1)c1ccc(Cl)cc1 [ST/570135] | 16.2 µM | 0.67 | – | – | – | – | –

Further lines, the compound ahead of its results:

SMILES | IC50 [1] | IC50 (HepG2 cells) | pSI v HepG2 (HepG2 cells; [3]) | IC50 [2, 4] | IC50 (THP-1 macrophages) | pSI v THP-1 (THP-1 macrophages) | pSI v HepG2 (HepG2 cells; [5]) | IC50 ([2]; −logIC50 M, L. donovani infected THP-1 macrophages, 96 hours, read-out: pIC50 against intra-macrophage L. donovani amastigotes (converted))
O=C(Nc1scc(-c2ccc(Br)cc2)c1C(=O)O)c1ccccc1F [ST/656010] | 8.32 µM | > 100 µM | 1.08 | > 50.1 µM | > 50.1 µM | 0.00 | – | –
COc1ccc(S(=O)(=O)Nc2cc([N+](=O)[O-])ccc2Cl)cc1C(C)C [ST/1153644] | 10 µM | > 100 µM | 1.00 | 38.9 µM | > 50.1 µM | 0.11 | – | –
COc1cc([N+](=O)[O-])ccc1NC(=O)Nc1ccc(OC(F)(F)F)cc1 [ST/871026] | 6.92 µM | 13.2 µM | – | – | – | – | 0.28 | –
N#Cc1nc(-c2ccccc2)oc1S(=O)(=O)c1ccc(Br)cc1 [ST/1197083] | 0.363 µM | 60.3 µM | 2.22 | – | – | – | – | –
O=C(Nc1nnc(-c2ccccc2)o1)c1ccc2c(c1)CCCC2 [ST/912241] | 1.23 µM | > 100 µM | – | – | – | – | 1.91 | –
COc1cc(OC)cc(C(=O)Nc2nnc(-c3ccccc3Cl)o2)c1 [ST/709938] | 0.776 µM | 85.1 µM | 2.04 | 26.3 µM | > 50.1 µM | 0.28 | – | –
N#Cc1ccc(N2CCCC[C@H]2c2cccnc2)c([N+](=O)[O-])c1 [compound 5] | – | – | – | – | – | – | – | 2 µM
O=C(Nc1cccc(S(=O)(=O)Nc2ccccc2Cl)c1)c1ccc([N+](=O)[O-])o1 [ST/579040] | 0.49 µM | 22.4 µM | 1.66 | 11.2 µM | 12 µM | 0.03 | – | –
Cc1ncccc1Oc1ncc(Cl)cc1S(=O)(=O)Nc1cccc(Cl)c1F [AV207107-107A1] | 8.13 µM | > 100 µM | 1.09 | > 50.1 µM | > 50.1 µM | 0.00 | – | –
O=C(Nc1ccc2scnc2c1)c1ccc(Cl)s1 [ST/1127597] | 6.46 µM | 97.7 µM | 1.18 | – | – | – | – | –
O=C(Nc1cccc(Cl)c1)Nc1ccc2nnsc2c1 [SC/98031] | 6.61 µM | 17.8 µM | 0.43 | – | – | – | – | –
Cc1[nH]c2ccccc2c(=O)c1Cc1ccc(OC(F)(F)F)cc1 [4598W 92C*A] | 1.55 µM | 95.5 µM | 1.79 | – | – | – | – | –
Cc1cccc2sc(N(Cc3cccnc3)C(=O)C3CCCCC3)nc12 [ST/712281] | 3.16 µM | 85.1 µM | 1.43 | – | – | – | – | –
